Several values for one entry are separate records, joined by “and”; a condition that tells them apart may be missing. Identical values can stand only once. Entries after “also recorded” stand apart in the source; their conditions may differ.
Legend:
Assay type in all cases: in vivo, rat (male Sprague-Dawley)
[1] = Daily body weight of intravenously infused rats
Description: Water was available ad libitum at all times.
The vein was then ligated dorsally to the catheter. […] Body weights were measured daily.
(§1) Infusate volume, oral food intake, body weight and urinary volume and total nitrogen were monitored daily for each rat. Infusate volume and food intake were determined by weighing the appropriate container at the start and end of each 24 hr. period. Measurements were recorded between 9 and 10 AM each day. At the end of the 7th day, rats were sacrificed, and blood and liver were harvested. Plasma was separated for measurement of free fatty acids, glucose, and ketone bodies. Liver was weighed and a sample was fixed in buffered formalin for gross histology.
(§2) The data were analyzed for significance by the one-way analysis of variance with repeated measures and comparing the effect of dietary treatment on each day. […] The null hypothesis was concluded invalid if p≤0.05. The analysis of variance was computed on a SAS statistical package.
This compound has an estimated energy density of 4.86 kcal/gram based on thermodynamic data from similar compounds.

[2] = Liver weight after 7 days of infusion; details: for Liver/100 GM: as percentage of body weight
Description: as §1
The data were analyzed for significance by the one-way analysis of variance with repeated measures and comparing the effect of dietary treatment on each day. […] The null hypothesis was concluded invalid if p≤0.05. The analysis of variance was computed on a SAS statistical package. […]

[3] = Plasma free fatty acids, glucose and ketone bodies after 7 days of infusion; details: for T.KB: total ketone bodies
Description: as §1, §2

[4] = Oral dietary nitrogen (food) intake of intravenously infused rats
[5] = Table 5, Example 2, plasma, end of day 7, average of 7 rats
[6] = Table 5, Example 2, plasma, end of day 7, individual rat
[7] = Table 11, Example 4, plasma, average
[8] = Table 11, Example 4, plasma, individual rat

OC[C@H]1OC(O)[C@H](O)[C@@H](O)[C@@H]1O (stereo partly drawn) [Glucose, glucose, reference compound]
Daily Body Weight ([1]; Table 4, Example 2, day 6, average of 7 rats): 255 Grams
Daily Body Weight ([1]; Table 4, Example 2, day 6, individual rat): 257 Grams and 230 Grams and 274 Grams and 220 Grams and 238 Grams and 293 Grams
Daily Body Weight ([1]; Table 4, Example 2, day 7, average of 7 rats): 249 Grams
Daily Body Weight ([1]; Table 4, Example 2, day 7, individual rat): 245 Grams and 228 Grams and 251 Grams and 226 Grams and 230 Grams and 268 Grams and 297 Grams
Daily Body Weight ([1]; Table 10, Example 4, day 0, average of 9 rats): 252 Grams
Daily Body Weight ([1]; Table 10, Example 4, day 0, individual rat): 254 Grams and 288 Grams and 263 Grams and 251 Grams and 227 Grams and 260 Grams and 249 Grams and 233 Grams and 247 Grams
Daily Body Weight ([1]; Table 10, Example 4, day 1, average of 9 rats): 249 Grams
Daily Body Weight ([1]; Table 10, Example 4, day 1, individual rat): 247 Grams and 292 Grams and 256 Grams and 225 Grams and 259 Grams and 241 Grams and 227 Grams and 244 Grams
Daily Body Weight ([1]; Table 10, Example 4, day 2, average of 9 rats): 252 Grams
Daily Body Weight ([1]; Table 10, Example 4, day 2, individual rat): 261 Grams and 290 Grams and 267 Grams and 246 Grams and 224 Grams and 259 Grams and 237 Grams and 235 Grams and 245 Grams
Daily Body Weight ([1]; Table 10, Example 4, day 3, average of 9 rats): 251 Grams
Daily Body Weight ([1]; Table 10, Example 4, day 3, individual rat): 260 Grams and 292 Grams and 269 Grams and 240 Grams and 227 Grams and 264 Grams and 244 Grams and 234 Grams and 229 Grams
Daily Body Weight ([1]; Table 10, Example 4, day 4, average of 9 rats): 258 Grams
Daily Body Weight ([1]; Table 10, Example 4, day 4, individual rat): 263 Grams and 297 Grams and 273 Grams and 239 Grams and 234 Grams and 282 Grams and 248 Grams and 245 Grams
Daily Body Weight ([1]; Table 10, Example 4, day 5, average of 9 rats): 257 Grams
Daily Body Weight ([1]; Table 10, Example 4, day 5, individual rat): 268 Grams and 298 Grams and 270 Grams and 237 Grams and 239 Grams and 250 Grams and 241 Grams
Daily Body Weight ([1]; Table 10, Example 4, day 6, average of 9 rats): 263 Grams
Daily Body Weight ([1]; Table 10, Example 4, day 6, individual rat): 263 Grams and 302 Grams and 267 Grams and 241 Grams and 259 Grams and 268 Grams and 254 Grams and 245 Grams and 271 Grams
Daily Body Weight ([1]; Table 10, Example 4, day 7, average of 9 rats): 259 Grams
Daily Body Weight ([1]; Table 10, Example 4, day 7, individual rat): 264 Grams and 305 Grams and 272 Grams and 237 Grams and 247 Grams and 261 Grams and 249 Grams and 244 Grams and 255 Grams
Liver/100 GM ([2]; Table 5, Example 2, average of 7 rats): 3.220
Liver/100 GM ([2]; Table 5, Example 2, individual rat): 2.600 and 3.333 and 3.255 and 4.208 and 3.057 and 3.004 and 3.081
Liver Wt. ([2]; Table 5, Example 2, end of day 7, average of 7 rats): 7.983 Grams
Liver Wt. ([2]; Table 5, Example 2, end of day 7, individual rat): 6.37 Grams and 7.6 Grams and 8.17 Grams and 9.51 Grams and 7.03 Grams and 8.05 Grams and 9.15 Grams
Liver/100 GM ([2]; Table 11, Example 4, average): 3.636
Liver/100 GM ([2]; Table 11, Example 4, individual rat): 3.116 and 3.748 and 3.4975 and 3.789 and 4.01 and 4.617 and 3.403 and 3.377 and 3.169
Liver Wt. ([2]; Table 11, Example 4, end of day 7, average): 9.433
Liver Wt. ([2]; Table 11, Example 4, end of day 7, individual rat): 8.2264 and 11.4311 and 9.5132 and 8.9798 and 9.9056 and 12.0506 and 8.4742 and 8.2387 and 8.0815
liver weight and percentage liver weight ([2]; in words, end of day 7): similarity between glucose infused and experimental compound infused rats liver
ACAC [3, 5]: 0.088 mmol/L
BOHB [3, 5]: 0.505 mmol/L
FFa [3, 5]: 0.564 mmol/L
Glucose [3, 5]: 185.423 mg/dL
ACAC [3, 6]: 0.020 mmol/L and 0.066 mmol/L and 0.194 mmol/L and 0.096 mmol/L and 0.017 mmol/L and 0.031 mmol/L
BOHB [3, 6]: 0.385 mmol/L and 0.476 mmol/L and 0.533 mmol/L and 0.332 mmol/L and 0.358 mmol/L and 1.086 mmol/L and 0.363 mmol/L
FFa [3, 6]: 0.337 mmol/L and 0.976 mmol/L and 0.850 mmol/L and 0.816 mmol/L and 0.168 mmol/L and 0.483 mmol/L and 0.316 mmol/L
Glucose [3, 6]: 196.840 mg/dL and 161.300 mg/dL and 162.620 mg/dL and 164.800 mg/dL and 237.100 mg/dL and 228.500 mg/dL
T.KB [3, 5]: 0.593 mmol/L
T.KB [3, 6]: 0.405 mmol/L and 0.542 mmol/L and 0.727 mmol/L and 0.427 mmol/L and 0.375 mmol/L and 1.280 mmol/L and 0.394 mmol/L
ACAC [3, 7]: 0.029 mmol/L
BOHB [3, 7]: 0.512 mmol/L
Glucose [3, 7]: 214.433 mg/dL
Total FFA [3, 7]: 0.341 mmol/L
ACAC [3, 8]: 0.0085 mmol/L and 0.1195 mmol/L and 0.0177 mmol/L and 0.0095 mmol/L and 0.0038 mmol/L and 0.0145 mmol/L
BOHB [3, 8]: 0.5282 mmol/L and 0.5088 mmol/L and 0.5936 mmol/L and 0.2075 mmol/L and 0.6958 mmol/L and 0.6475 mmol/L and 0.3727 mmol/L and 0.4066 mmol/L and 0.651 mmol/L
Glucose [3, 8]: 263.3 mg/dL and 203.5 mg/dL and 429.3 mg/dL and 208 mg/dL and 284.8 mg/dL and 163.5 mg/dL and 124.9 mg/dL and 116.6 mg/dL
Total FFA [3, 8]: 0.327 mmol/L and 0.231 mmol/L and 0.462 mmol/L and 0.434 mmol/L and 0.525 mmol/L and 0.303 mmol/L and 0.206 mmol/L and 0.395 mmol/L and 0.19 mmol/L
blood / plasma glucose ([3]; in words, end of day 7): significantly elevatea plasma glucose; also recorded: higher for glucose infused rats than for the other two groups
free fatty acid concentration ([3]; in words, plasma, end of day 7): not different for the three groups
Dietary Nitrogen Intake ([4]; Table 1, Example 2, day 1, average of 7 rats): 203 MG N
Dietary Nitrogen Intake ([4]; Table 1, Example 2, day 2, average of 7 rats): 302 MG N
Dietary Nitrogen Intake ([4]; Table 1, Example 2, day 3, average of 7 rats): 291 MG N
Dietary Nitrogen Intake ([4]; Table 1, Example 2, day 4, average of 7 rats): 322 MG N
Dietary Nitrogen Intake ([4]; Table 1, Example 2, day 5, average of 7 rats): 290 MG N
Dietary Nitrogen Intake ([4]; Table 1, Example 2, day 7, average of 7 rats): 354 MG N
Dietary Nitrogen Intake ([4]; Table 7, Example 4, oral only, day 1, average of 9 rats): 279 MG N
Dietary Nitrogen Intake ([4]; Table 7, Example 4, oral only, day 1, individual rat): 500.08 MG N and 388.22 MG N and 164.5 MG N and 151.34 MG N and 78.96 MG N and 421.12 MG N and 329 MG N and 98.7 MG N and 375.06 MG N
Dietary Nitrogen Intake ([4]; Table 7, Example 4, oral only, day 2, average of 9 rats): 369 MG N
Dietary Nitrogen Intake ([4]; Table 7, Example 4, oral only, day 2, individual rat): 519.82 MG N and 513.24 MG N and 500.08 MG N and 98.7 MG N and 269.78 MG N and 434.28 MG N and 342.16 MG N and 243.46 MG N and 401.38 MG N
Dietary Nitrogen Intake ([4]; Table 7, Example 4, oral only, day 3, average of 9 rats): 323 MG N
Dietary Nitrogen Intake ([4]; Table 7, Example 4, oral only, day 3, individual rat): 355.32 MG N and 388.22 MG N and 394.8 MG N and 151.34 MG N and 467.18 MG N and 407.96 MG N and 197.4 MG N
Dietary Nitrogen Intake ([4]; Table 7, Example 4, oral only, day 4, average of 9 rats): 372 MG N
Dietary Nitrogen Intake ([4]; Table 7, Example 4, oral only, day 4, individual rat): 506.66 MG N and 401.38 MG N and 342.16 MG N and 427.7 MG N and 85.54 MG N and 282.94 MG N and 480.34 MG N and 486.92 MG N and 335.58 MG N
Dietary Nitrogen Intake ([4]; Table 7, Example 4, oral only, day 5, average of 9 rats): 379 MG N
Dietary Nitrogen Intake ([4]; Table 7, Example 4, oral only, day 5, individual rat): 493.5 MG N and 421.12 MG N and 368.48 MG N and 335.58 MG N and 0 MG N and 427.7 MG N and 454.02 MG N
Dietary Nitrogen Intake ([4]; Table 7, Example 4, oral only, day 6, average of 9 rats): 382 MG N
Dietary Nitrogen Intake ([4]; Table 7, Example 4, oral only, day 6, individual rat): 500.08 MG N and 454.02 MG N and 375.06 MG N and 329 MG N and 0 MG N and 394.8 MG N and 421.12 MG N and 447.44 MG N and 519.82 MG N
Dietary Nitrogen Intake ([4]; Table 7, Example 4, oral only, day 7, average of 9 rats): 381 MG N
Dietary Nitrogen Intake ([4]; Table 7, Example 4, oral only, day 7, individual rat): 421.12 MG N and 414.54 MG N and 355.32 MG N and 32.9 MG N and 401.38 MG N and 473.76 MG N and 407.96 MG N and 500.08 MG N
